{"source": "patent US20040171086A1", "about": "“Selective modulation of TLR-mediated biological activity” (3M Innovative Properties Company, priority 2003, published 2004)", "key": {"[1]": {"system": "myeloid dendritic cells (mDCs)", "assay": "Activation of blood myeloid dendritic cells (CD80/HLA-DR staining, flow cytometry)", "format": "cell-based, human", "details": "two donors; 1 μM IRM or 3 μM CpG2216, 16-24 hours; HLA-DR positive with increased CD80; FIG. 1", "protocol": "The blood myeloid dendritic cells (mDC) were isolated from the BDCA-4 negative cell fraction using the Miltenyi Microbead technology system (Miltenyi BioTec, Auburn, Calif.). Cells were resuspended in 4° C. separation buffer (PBS- pH 7.2, 0.5% BSA-2.5 gm, 2 mM 0.5M EDTA) at 20 μl per 10^7 total cells. […] The cells were resuspended in 500 μL of separation buffer per 10^8 total cells. […] BDCA-1^+mDCs were enriched using the Miltenyi Automacs POSSELD software. The cells retained in the column were eluted into a sterile 50 mL polystyrene conical tube.\n(§1) Compounds, reconstituted in dimethyl sulfoxide (DMSO, sterile cell culture grade, Sigma Chemical Co., St. Louis, Mo.) were added at 2× their final concentration to a 96-well flat-bottom sterile tissue culture polystyrene plate (Benton Dickinson Labware, Franklin Lakes, N.J.). Cells were then added at 2× the final concentration (final cell concentration is 1×10^6 cells/mL). Plates were incubated for 16-24 hours at 37° C., 5% CO2. After incubation, plates were centrifuged at 1000 RPM for 10 minutes at 25° C. Supernatants were transferred to a 0.75 mL sterile polypropylene Matrix box (Matrix, Hudson, N.Y.) and stored at −20° C. for future cytokine analysis."}, "[2]": {"system": "plasmacytoid dendritic cells (pDCs)", "assay": "Activation of plasmacytoid dendritic cells (CD80/HLA-DR staining, flow cytometry)", "format": "cell-based, human", "details": "two donors; 1 μM IRM or 3 μM CpG2216, 16-24 hours; HLA-DR positive with increased CD80; FIG. 2", "protocol": "The cells were resuspended in 500 μL of separation buffer per 10^8 total cells. […] The cells retained in the column were eluted into a sterile 50 mL polystyrene conical tube.\nas §1"}}, "data": [{"smiles": "CCOCc1nc2c(N)nc3c(c2n1CC(C)(C)O)CCCC3", "note": "[IRM16, 4-amino-2-ethoxymethyl-α,α-dimethyl-6,7,8,9-tetrahydro-1H-imidazo[4,5-c]quinoline-1-ethanol]", "values": [{"measurement": "activation of myeloid dendritic cells (mDCs) in vitro", "setting": "[1]", "value": "activated"}, {"measurement": "activation of plasmacytoid dendritic cells (pDCs) in vitro", "setting": "[2]", "value": "activated"}]}]}
